14 compounds from ChEMBL document CHEMBL3352768, “Synthesis and PGE₂ production inhibition of s-triazine derivatives as a novel scaffold in RAW 264.7 macrophage cells” (Bioorg Med Chem Lett, 2014) can be followed below.

The test system of data set [1] is RAW264.7. The data set can be described thus: Inhibition of PGE2 production in LPS-induced mouse RAW264.7 cells at 10 uM. Type of data set: functional.
The test system of data set [2] is RAW264.7. The data set can be described thus: Cytotoxicity against mouse RAW264.7 cells assessed as reduction in cell viability by MTT assay. Type of data set: cell-based. On the technique in general: Tetrazolium assays rely on reduction of a dye to a coloured formazan, in cell work by metabolically active cells.
Data set [3] deals with RAW264.7. The data set can be described thus: Inhibition of PGE2 production in LPS-induced mouse RAW264.7 cells at 3 uM. In kind it is functional.
The target in data set [4] is T1, Prostaglandin G/H synthase 2 (Homo sapiens, UniProt P35354).
T1 sequence (P35354 whole entry): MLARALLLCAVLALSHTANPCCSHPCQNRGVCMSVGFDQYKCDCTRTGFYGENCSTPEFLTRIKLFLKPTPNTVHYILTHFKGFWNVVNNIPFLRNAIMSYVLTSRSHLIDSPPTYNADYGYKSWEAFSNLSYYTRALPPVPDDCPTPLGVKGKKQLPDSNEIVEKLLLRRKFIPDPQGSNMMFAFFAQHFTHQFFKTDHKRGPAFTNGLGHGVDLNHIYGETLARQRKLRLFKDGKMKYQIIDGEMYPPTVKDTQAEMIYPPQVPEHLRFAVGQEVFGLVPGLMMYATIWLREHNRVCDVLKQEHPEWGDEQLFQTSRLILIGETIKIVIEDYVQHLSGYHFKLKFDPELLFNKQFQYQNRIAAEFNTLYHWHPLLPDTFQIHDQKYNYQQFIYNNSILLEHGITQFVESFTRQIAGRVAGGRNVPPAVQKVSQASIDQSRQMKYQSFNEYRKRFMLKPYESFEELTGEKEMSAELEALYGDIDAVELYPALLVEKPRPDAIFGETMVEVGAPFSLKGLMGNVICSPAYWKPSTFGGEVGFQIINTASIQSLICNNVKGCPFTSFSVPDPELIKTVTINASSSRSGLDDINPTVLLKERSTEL
Kind of data set: Inhibition of human recombinant COX2 in cell-free system by enzyme immunoassay.

In data set [5] the test system is RAW264.7. Kind of data set: Inhibition of PGE2 production in LPS-induced mouse RAW264.7 cells. Type of data set: functional, cell-based.
Data set [6] has as its target T2, Prostaglandin G/H synthase 2 (Homo sapiens) (UniProt P35354).
T2 sequence (whole entry): T1 sequence (P35354 whole entry)
The data set can be described thus: Inhibition of human recombinant COX2 in cell-free system at 10 uM by enzyme immunoassay.

Data set [7] has as its system RAW264.7. Kind of data set: Inhibition of PGE2 production in LPS-induced mouse RAW264.7 cells at 1 uM. Type of data set: functional.

One may read the inhibition as the percentage by which the read-out fell short of the control. For orientation: IC50 means the concentration that gives 50% inhibition.

The compound `O=C(O)C(Sc1nc(Cl)nc(Nc2ccc(-c3ccccc3)cc2)n1)c1cccc2ccccc12` (stereo not given) gave an inhibition at 10 µM in data set [1] of 7.77%. In data set [2], the Activity was over 10 µM.
In turn, `CS(=O)(=O)Nc1ccc([N+](=O)[O-])cc1OC1CCCCC1` [NS-398] came in with an inhibition at 3 µM in data set [3] of 99.4%.
On to `CC(C)c1ccc2c(c1)c(SC(C)(C)C)c(CC(C)(C)C(=O)O)n2Cc1ccc(Cl)cc1`, for which the IC50 in data set [4] is 58 µM.
The compound `COC(=O)C(Sc1nc(Cl)nc(Nc2ccc(C(C)C)cc2)n1)c1ccccc1` (stereo not given) showed an inhibition at 10 µM in data set [1] of 91.8%. Moreover, 5.76 µM corresponded to half-maximal inhibition in data set [5] (IC50). The inhibition in data set [6] came to 31.8%. The Activity in data set [2] was over 10 µM.
As for `CCOC(=O)C(Sc1nc(Cl)nc(Nc2ccc(Cc3ccccc3)cc2)n1)c1cccc2ccccc12` (stereo not given), the inhibition at 10 µM in data set [1] is 72.6%. In addition, the Activity in data set [2] was over 10 µM.
The compound `CCOC(=O)C(Sc1nc(Cl)nc(Nc2ccc(-c3ccccc3)cc2)n1)c1cccc2ccccc12` (stereo not given) registered an inhibition at 10 µM in data set [1] of 78.6%. The Activity in data set [2] is over 10 µM.
Compound `COC(=O)C(Sc1nc(C)nc(Nc2ccc(C(C)C)cc2)n1)c1ccccc1` (stereo not given) displayed an inhibition at 10 µM in data set [1] of 85.7%. The Activity in data set [2] was over 10 µM.
In the same order, the values of `CCOC(=O)C(Sc1nc(Cl)nc(Nc2ccc(C3CCCCC3)cc2)n1)c1cccc2ccccc12` (stereo not given) are 43.7% and over 10 µM.
In the case of `Cc1nc(Nc2ccc(C(C)C)cc2)nc(SC(C(N)=O)c2ccccc2)n1` (stereo not given), the inhibition at 1 µM in data set [7] came to 26.5%. Further, the Activity in data set [2] is under 10 µM.
In data set [1], `COC(=O)C(Sc1nc(Cl)nc(Nc2ccc(Oc3ccccc3)cc2)n1)c1cccc2ccccc12` (stereo not given) gave an inhibition at 10 µM of 72.5%. In addition, in data set [2], the Activity was over 10 µM.
`COC(=O)C(Sc1nc(Cl)nc(Nc2ccc(Oc3ccccc3)cc2)n1)c1ccccc1` (stereo not given): the inhibition at 10 µM in data set [1] was determined as 85.8%. The Activity in data set [2] is over 10 µM.
The corresponding values for `COC(=O)C(Sc1nc(Cl)nc(Nc2ccc(-c3ccccc3)cc2)n1)c1ccccc1` (stereo not given) are 82.7% and over 10 µM.
In the same order, the values of `COC(=O)C(Sc1nc(Cl)nc(Nc2ccc(C(C)C)cc2)n1)c1cccc2ccccc12` (stereo not given) are 88.7% and over 10 µM.
Turning to `COC(=O)C(Sc1nc(Cl)nc(Nc2ccc(Cc3ccccc3)cc2)n1)c1ccccc1` (stereo not given), the inhibition at 10 µM in data set [1] was found to be 90.8%. In addition, inhibition in data set [5] was half-maximal at 5.52 µM (IC50). Also, the inhibition in data set [6] is 0%. For the same compound, the Activity in data set [2] was over 10 µM.
